What follows are substances tested on IFN-γ (assay: In vivo peptide micro-library screening, IFN-γ ELISA of re-stimulated splenocytes relative to A5). Conditions: rank among 100 micro-library peptides; IFN-γ on re-stimulation relative to A5; 5 peptides plus A5 with CPQ.
Design: species or system mice
Experimental: Mice were immunized with 5 library peptides at a time, along with the A5 peptide, with all peptides combined and admixed with CPQ. After two intramuscular injections, splenocytes were collected, and then re-stimulated with each of the synthetic micro-library peptides, individually. Production of IFN-γ was measured and peptide immunogenicity was determined relative to the A5 peptide, which served as in internal control that could induce strong Ag-specific CD8^+ T cell responses.
For Ag screening, multivalent vaccine composed of peptide with the same MHC-I haplotypes (H-2L^d, H-2D^d, or H-2K^d) and the internal A5 peptide were admixed with CPQ. After immunization, only ˜10% of MHC-I binding peptides induced T cells in splenocytes that produced IFN-γ with peptide re-stimulation, and none were nearly as effective as A5 (FIG. 16B). The most highly immunogenic peptides only produced about a quarter of the level of IFN-γ relative to A5. […] It is also feasible that immunization with higher antigen doses of single individual peptides could have induced stronger immunogenic responses, although this would decrease the in vivo peptide micro-library screening throughput.
IFN-γ ELISA: 2.5×10^5 splenocytes were seeded in a 96 wells plate and stimulated with 10 μg/mL antigens for 72 hr. 50 μL of supernatant was collected from each well and subjected to Interferon gamma ELISA (Thermofisher; catalog: BMS606TEN) according to manufacturer protocol.

Point of comparison: “H6-NPRAMQVLL-ERR (HHHHHHNPRAMQVLLERR; CT20)”, Experimental rank 38. Against it:
- H6-AYVNAIEKI-ERR (HHHHHHAYVNAIEKIERR; CT12) — higher, 93
- H6-AYVNATGEV-ERR (HHHHHHAYVNATGEVERR; CT13) — higher, 95
- H6-CQIAMVHYI-ERR (HHHHHHCQIAMVHYIERR; CT61) — lower, 10
- H6-CYVTYKGEI-ERR (HHHHHHCYVTYKGEIERR; CT9) — higher, 89
- H6-DPFATPLSM-ERR (HHHHHHDPFATPLSMERR; CT21) — higher, 83
- H6-DPQFAENYV-ERR (HHHHHHDPQFAENYVERR; CT94) — higher, 55
- H6-DSPNRRFTE-ERR (HHHHHHDSPNRRFTEERR; CT60) — lower, 20
- H6-EGPHGQPVS-ERR (HHHHHHEGPHGQPVSERR; CT54) — higher, 57
- H6-EPQIAMDDM-ERR (HHHHHHEPQIAMDDMERR; CT22) — higher, 74
- H6-EPQVEPLDF-ERR (HHHHHHEPQVEPLDFERR; CT15) — higher, 81
- H6-EYEKIEIPI-ERR (HHHHHHEYEKIEIPIERR; CT68) — higher, 66
- H6-FFMKMASKF-ERR (HHHHHHFFMKMASKFERR; CT73) — higher, 78
- H6-FPPQNMFEF-ERR [CT14] (HHHHHHFPPQNMFEFERR; CT14) — higher, 98
- H6-FPPQNMFEF-ERR [CT43] (HHHHHHFPPQNMFEFERR; CT43) — lower, 15
- H6-FPSESEFFK-ERR (HHHHHHFPSESEFFKERR; CT83) — lower, 26
- H6-FYTSYLRRL-ERR (HHHHHHFYTSYLRRLERR; CT74) — higher, 76
- H6-GFPSPLGGI-ERR (HHHHHHGFPSPLGGIERR; CT58) — higher, 42
- H6-GHVAAGGAL-ERR (HHHHHHGHVAAGGALERR; CT79) — higher, 46
- H6-GPPGGFQEF-ERR [CT4] (HHHHHHGPPGGFQEFERR; CT4) — higher, 63
- H6-GPPGGFQEF-ERR [CT99] (HHHHHHGPPGGFQEFERR; CT99) — higher, 53
- H6-GPPPHSAPC-ERR (HHHHHHGPPPHSAPCERR; H6 and ERR flanks; CT47) — higher, 71
- H6-GRPSIDNVL-ERR (HHHHHHGRPSIDNVLERR; CT51) — lower, 37
- H6-GYEAVVRLL-ERR (HHHHHHGYEAVVRLLERR; CT23) — higher, 77
- H6-HHTMMVQAI-ERR (HHHHHHHHTMMVQAIERR; CT24) — higher, 86
- H6-HYLNDGDAI-ERR (HHHHHHHYLNDGDAIERR; H6 and ERR flanks; CT25) — higher, 80
- H6-IGQMLQTHF-ERR (HHHHHHIGQMLQTHFERR; CT84) — higher, 49
- H6-IPDEAMVKL-ERR (HHHHHHIPDEAMVKLERR; CT16) — lower, 33
- H6-IPIFHILNT-ERR (HHHHHHIPIFHILNTERR; CT85) — lower, 8
- H6-IYLESVAIM-ERR (HHHHHHIYLESVAIMERR; CT78) — higher, 50
- H6-IYSRTTDVL-ERR (HHHHHHIYSRTTDVLERR; CT76) — higher, 64
- H6-KGPKRDEQC-ERR (HHHHHHKGPKRDEQCERR; CT2) — higher, 65
- H6-KGPRNIQLD-ERR (HHHHHHKGPRNIQLDERR; CT57) — higher, 48
- H6-KGPYWLEVK-ERR (HHHHHHKGPYWLEVKERR; CT44) — higher, 44
- H6-KLLASALST-ERR (HHHHHHKLLASALSTERR; CT39*) — lower, 5
- H6-KPFTICKYY-ERR (HHHHHHKPFTICKYYERR; CT88) — lower, 34
- H6-KPYESYTEQ-ERR (HHHHHHKPYESYTEQERR; CT87) — higher, 75
- H6-KTPEL VEAL-ERR (HHHHHHKTPELVEALERR; CT36*) — higher, 51
- H6-KYFQAGKYE-ERR (HHHHHHKYFQAGKYEERR; CT69) — lower, 21
- H6-KYYAVNFSM-ERR [CT8] (HHHHHHKYYAVNFSMERR; CT8) — higher, 88
- H6-KYYAVNFSM-ERR [CT95] (HHHHHHKYYAVNFSMERR; CT95) — higher, 59
- H6-LFLKSPTAL-ERR (HHHHHHLFLKSPTALERR; CT34) — higher, 99
- H6-LFVTVLEVI-ERR (HHHHHHLFVTVLEVIERR; CT26) — higher, 91
- H6-LGYRYWTGI-ERR (HHHHHHLGYRYWTGIERR; CT92) — higher, 41
- H6-LLYNAVVWL-ERR (HHHHHHLLYNAVVWLERR; CT93) — lower, 27
- H6-LNYPHITNL-ERR (HHHHHHLNYPHITNLERR; CT81) — higher, 54
- H6-LVPNRFSRL-ERR (HHHHHHLVPNRFSRLERR; CT45) — lower, 13
- H6-LYLANLRHM-ERR (HHHHHHLYLANLRHMERR; CT64) — lower, 14
- H6-MLARKQFDL-ERR (HHHHHHMLARKQFDLERR; CT86) — higher, 60
- H6-MPQLFMVSK-ERR (HHHHHHMPQLFMVSKERR; CT100) — lower, 16
- H6-NALSSMGAL-ERR (HHHHHHNALSSMGALERR; CT40*) — lower, 6
- H6-PGGFQEFNF-ERR (HHHHHHPGGFQEFNFERR; CT89) — lower, 25
- H6-PGPIKCVPI-ERR (HHHHHHPGPIKCVPIERR; CT3) — lower, 22
- H6-PPQNMFEFP-ERR (HHHHHHPPQNMFEFPERR; CT82) — higher, 67
- H6-PTPRRFSPP-ERR (HHHHHHPTPRRFSPPERR; CT52) — lower, 24
- H6-PYFRLEHYL-ERR (HHHHHHPYFRLEHYLERR; CT27) — higher, 87
- H6-PYLTALDDL-ERR (HHHHHHPYLTALDDLERR; CT28) — higher, 82
- H6-QFPSESEFF-ERR (HHHHHHQFPSESEFFERR; CT5) — lower, 18
- H6-RGEYEDPYY-ERR (HHHHHHRGEYEDPYYERR; CT56) — lower, 35
- H6-RGGPKKCAL-ERR (HHHHHHRGGPKKCALERR; CT53) — lower, 32
- H6-RGPPPHSAP-ERR (HHHHHHRGPPPHSAPERR; H6 and ERR flanks; CT46) — higher, 72
- H6-RHNTMLKAM-ERR (HHHHHHRHNTMLKAMERR; CT66) — higher, 61
- H6-RKIKGPYWL-ERR (HHHHHHRKIKGPYWLERR; CT91) — higher, 52
- H6-RPIKGPRNI-ERR (HHHHHHRPIKGPRNIERR; CT18) — higher, 47
- H6-RTPHVLWSW-ERR (HHHHHHRTPHVLWSWERR; CT41) — higher, 40
- H6-RYWTGIGVL-ERR (HHHHHHRYWTGIGVLERR; CT11) — higher, 92
- H6-SEGNSSHTI-ERR (HHHHHHSEGNSSHTIERR; CT81) [CT80] — lower, 31
- H6-SFQPTADEL-ERR (HHHHHHSFQPTADELERR; CT62) — lower, 11
- H6-SGPIGPPEI-ERR (HHHHHHSGPIGPPEIERR; CT48) — higher, 70
- H6-SGPSYATYL-ERR (HHHHHHSGPSYATYLERR; CT1) — higher, 62
- H6-SPKALAHNG-ERR (HHHHHHSPKALAHNGERR; CT37*) — lower, 1
- H6-SPNRRFTEM-ERR (HHHHHHSPNRRFTEMERR; CT17) — higher, 58
- H6-SRLQSLTLI-ERR (HHHHHHSRLQSLTLIERR; CT72) — lower, 7
- H6-SSKHRRSFV-ERR (HHHHHHSSKHRRSFVERR; CT38*) — higher, 45
- H6-SYATYLQPA-ERR (HHHHHHSYATYLQPAERR; CT63) — lower, 19
- H6-SYETLKKSL-ERR (HHHHHHSYETLKKSLERR; CT7) — higher, 94
- H6-SYIKKLKEL-ERR (HHHHHHSYIKKLKELERR; CT29) — higher, 90
- H6-SYIMAICGM-ERR [CT67] — lower, 36
- H6-SYLRRLPGL-ERR (HHHHHHSYLRRLPGLERR; CT35) — higher, 100
- H6-SYQAALAEN-ERR (HHHHHHSYQAALAENERR; CT77) — higher, 39
- H6-SYTEQNVKL-ERR (HHHHHHSYTEQNVKLERR; CT30) — higher, 85
- H6-SYTSYIMAI-ERR (HHHHHHSYTSYIMAIERR; CT10) — higher, 69
- H6-TALPVGFSL-ERR (HHHHHHTALPVGFSLERR; CT90) — higher, 79
- H6-TGPYVMMIG-ERR (HHHHHHTGPYVMMIGERR; CT6) — higher, 84
- H6-TGRRRTATK-ERR (HHHHHHTGRRRTATKERR; CT59) — lower, 30
- H6-TPHVLWSWG-ERR (HHHHHHTPHVLWSWGERR; CT97) — lower, 4
- H6-TPPSHKLPL-ERR (HHHHHHTPPSHKLPLERR; CT55) — lower, 23
- H6-TPPSIFSTQ-ERR (HHHHHHTPPSIFSTQERR; CT49) — higher, 73
- H6-TY AIALINV-ERR (HHHHHHTYAIALINVERR; CT70) — lower, 29
- H6-TYLQPAQAQ-ERR (HHHHHHTYLQPAQAQERR; CT75) — lower, 12
- H6-TYWKGNPEM-ERR (HHHHHHTYWKGNPEMERR; CT31) — higher, 97
- H6-VVEANWTML-ERR (HHHHHHVVEANWTMLERR; CT96) — lower, 2
- H6-VVLETFYDL-ERR (HHHHHHVVLETFYDLERR; CT19) — higher, 56
- H6-VYFTINVNL-ERR (HHHHHHVYFTINVNLERR; CT32) — higher, 43
- H6-VYFVAGVRV-ERR (HHHHHHVYFVAGVRVERR; H6 and ERR flanks; CT71) — lower, 3
